Experiment: Storage stability of crystalline forms at room temperature for two years (form by XRD)
Type: physicochemical
Settings: for Crystal form after 2 years: 1 g sample in closed glass bottle, room temperature, form by XRD, monosodium salt
Protocol: The x-ray powder diffraction was performed on Scintag X-ray powder diffractometer model X'TRA with a solid state detector at room temperature. Copper radiation of 1.5418 Å was used. The sample holder was a round standard aluminum sample holder with rough zero background. The scanning parameters were range: 2-40 degrees two-theta; scan mode: continuous scan; step size: 0.05 degrees; and at a rate of 5 degrees/minute.
1 g samples of crystalline ibandronate sodium Forms K1, D, J, H, E, Q2, QQ, K3, Q4, L, G, C, S, R, Q3, K, and Q6, as well as amorphous form were each placed into separate glass bottles, which were then closed and stored at room temperature for 2 years.

SMILES | Crystal form after 2 years | Stability of crystalline form on storage (about 15° C. to about 30° C. for more than about 3 months, as described in Example 7) | Retention of crystalline form after storage (room temperature for two years) | Crystal form after 2 years (listed as H)
CCCCCN(C)CCC(O)(P(=O)([O-])O)P(=O)(O)O.[Na+] [Form C, (1-hydroxy-3-(N-methyl-N-pentylamino)propylidene) bisphosphonic acid monosodium salt] | Form V | – | – | –
CCCCCN(C)CCC(O)(P(=O)([O-])O)P(=O)(O)O.[Na+] [Form D, (1-hydroxy-3-(N-methyl-N-pentylamino)propylidene) bisphosphonic acid monosodium salt] | – | stable | maintained their crystalline form | –
CCCCCN(C)CCC(O)(P(=O)([O-])O)P(=O)(O)O.[Na+] [Form H, (1-hydroxy-3-(N-methyl-N-pentylamino)propylidene) bisphosphonic acid monosodium salt] | mixture of crystalline ibandronate sodium Forms H and V | – | – | H + V
CCCCCN(C)CCC(O)(P(=O)([O-])O)P(=O)(O)O.[Na+] [Form S, (1-hydroxy-3-(N-methyl-N-pentylamino)propylidene) bisphosphonic acid monosodium salt] | Q plus additional XRD reflections at 10.4, | – | – | –

Source: US20090012047A1, “Crystalline forms of ibandronate sodium” (priority 2006, published 2009)
